Assay results: PubChem BioAssay AID2771 (The Scripps Research Institute Molecular Screening Center, 2010)
Calls of active or inactive are those of the source. The rule behind the calls is not given here.

These compounds were tested against Signal transducer and activator of transcription 3 (Homo sapiens) (UniProt P40763) (assay: STAT3 inhibitors in luciferase reporter cells, late-stage follow-up, counter-screen for STAT1 inhibitor project, cell-based, luminescence, dose response (AID 2771)). Details: STAT3-responsive luciferase reporter cells.

SMILES | IC50
CCOc1ccc2oc(=O)cc(CSc3nc4ccccc4c(=O)[nH]3)c2c1 | > 55.7 µM (inactive)
Cc1ccc(-n2nc(C(=O)O)c3ccccc3c2=O)cc1C | > 55.7 µM (inactive)
O=C(c1ccc(-n2c(=S)[nH]c3ccccc3c2=O)cc1)N1CCN(c2ccccc2)CC1 | > 55.7 µM (inactive)
O=C(Nc1ccc(F)cc1)C(c1ccccc1)N1CCN(C(=O)c2ccccc2)CC1 (centres undefined) | > 55.7 µM (inactive)
CCOC(=O)Nc1ccc2c(CSc3nc4ccccc4c(=O)[nH]3)cc(=O)oc2c1 | > 55.7 µM (inactive)
CC(C(=O)Nc1ccc(F)c(F)c1)N1CCN(S(=O)(=O)c2ccc(C(F)(F)F)cc2)CC1 (centres undefined) | > 18.6 µM (inactive)
COc1cccc(NC(=O)C(c2ccccc2)N2CCN(S(=O)(=O)c3ccc(C)cc3)CC2)c1 (centres undefined) | > 55.7 µM (inactive)
COc1ccc(N2CCN(C(=O)c3ccc(-n4c(=S)[nH]c5ccccc5c4=O)cc3)CC2)cc1 | > 55.7 µM (inactive)
O=C(Nc1ccc(Cl)c(C(F)(F)F)c1)C(c1ccccc1)N1CCN(S(=O)(=O)c2ccccc2)CC1 (centres undefined) | > 55.7 µM (inactive)
CCC(C)c1ccc(-c2csc(CN3C(=O)c4ccccc4N/C3=C\N3CCN(C)CC3)n2)cc1 (centres undefined) | > 55.7 µM (inactive)
COc1cc2c(cc1OC)C(=O)N(Cc1nnc(-c3ccc(Cl)cc3)o1)C(=CN1CCOCC1)N2 | > 55.7 µM (inactive)
CN(C)C(=O)c1nn(-c2ccc(F)cc2)c(=O)c2ccccc12 | > 55.7 µM (inactive)
O=C(O)c1nn(-c2ccc(F)cc2)c(=O)c2ccccc12 | > 55.7 µM (inactive)
O=c1c2ccccc2nc(CN2CCOCC2)n1Cc1nc(-c2ccc[nH]2)cs1 | > 55.7 µM (inactive)
CCOc1ccccc1NC(=O)C(c1ccccc1)N1CCN(S(=O)(=O)c2ccc(F)c(F)c2F)CC1 (centres undefined) | > 55.7 µM (inactive)
CCOC(=O)c1ccc(S(=O)(=O)N2CCN(C(C(=O)Nc3ccc(OC)c(Cl)c3)c3ccccc3)CC2)cc1 (centres undefined) | > 55.7 µM (inactive)
Cc1ccc2oc(=O)cc(CSc3nc(-c4ccccc4)c4ccccc4n3)c2c1 | > 55.7 µM (inactive)
O=C1c2ccccc2N/C(=C\N2CCOCC2)N1Cc1nc(-c2ccccc2F)cs1 | > 55.7 µM (inactive)
CCOC(=O)N1CCN(C(=O)c2ccc(-n3c(=S)[nH]c4ccccc4c3=O)cc2)CC1 | > 55.7 µM (inactive)
COc1cc2c(cc1OC)C(=O)N(Cc1cc(-c3ccccc3OC)no1)C(=CN1CCOCC1)N2 | inactive
O=C(OCC1CCCCC1)c1nn(-c2ccccc2)c(=O)c2ccccc12 | > 55.7 µM (inactive)
CN(C)Cc1nc2ccccc2c(=O)n1Cc1nc(C(C)(C)C)cs1 | > 55.7 µM (inactive)
O=C(c1ccc(-n2c(=S)[nH]c3ccccc3c2=O)cc1)N1CCN(C2CCCCC2)CC1 | > 55.7 µM (inactive)
CN1CCN(C=C2Nc3ccccc3C(=O)N2Cc2nc(C34CC5CC(CC(C5)C3)C4)cs2)CC1 | > 55.7 µM (inactive)
COc1cccc(-c2csc(Cn3c(CN4CCOCC4)nc4ccccc4c3=O)n2)c1 | > 55.7 µM (inactive)
O=C(Nc1ccc(F)cc1)C(c1ccccc1)N1CCN(S(=O)(=O)c2ccc3ccccc3c2)CC1 (centres undefined) | > 55.7 µM (inactive)
CN1CCN(Cc2nc3ccccc3c(=O)n2Cc2nc(-c3cccc([N+](=O)[O-])c3)cs2)CC1 | > 55.7 µM (inactive)

SMILES | IC50
CCC(C(=O)Nc1ccccc1)N1CCN(S(=O)(=O)c2ccc3c(c2)CCC3)CC1 (centres undefined) | > 55.7 µM (inactive)
CN1CCN(C(=O)c2ccc(-n3c(=S)[nH]c4ccccc4c3=O)cc2)CC1 | > 55.7 µM (inactive)
COC(=O)c1nn(-c2ccc(F)cc2)c(=O)c2ccccc12 | > 55.7 µM (inactive)
COc1ccc(C)cc1NC(=O)C(c1ccccc1)N1CCN(S(=O)(=O)c2ccc(F)cc2)CC1 (centres undefined) | > 55.7 µM (inactive)
CN(C)Cc1nc2ccccc2c(=O)n1Cc1nc(-c2cccc([N+](=O)[O-])c2)cs1 | > 55.7 µM (inactive)
O=C(Nc1ccc(F)cc1)C(c1ccccc1)N1CCN(S(=O)(=O)c2ccccc2)CC1 (centres undefined) | > 55.7 µM (inactive)
COc1cc2c(cc1OC)C(=O)N(Cc1coc(-c3ccccc3)n1)C(=CN1CCOCC1)N2 | > 55.7 µM (inactive)
O=C1c2ccccc2N/C(=C\N2CCOCC2)N1Cc1nc(-c2ccc(F)c(F)c2)cs1 | > 18.6 µM (inactive)
Cc1ccc(-n2nc(C(=O)O)c3ccccc3c2=O)cc1Cl | > 55.7 µM (inactive)
CN(Cc1ccccc1N1CCCC1)C(=O)c1nn(-c2ccccc2)c(=O)c2ccccc12 | > 55.7 µM (inactive)
N#Cc1ccccc1S(=O)(=O)N1CCN(C(C(=O)Nc2ccc(F)cc2)c2ccccc2)CC1 (centres undefined) | > 55.7 µM (inactive)
Cc1ccc(C)c(S(=O)(=O)N2CCN(C(C(=O)Nc3ccc(F)cc3)c3ccccc3)CC2)c1 (centres undefined) | > 55.7 µM (inactive)
CC(C(=O)Nc1ccccc1)N1CCN(S(=O)(=O)c2ccccc2)CC1 (centres undefined) | > 55.7 µM (inactive)
C=C1NN(c2ccc(C(=O)N3CCC(Cc4ccccc4)CC3)cc2)C(=O)c2ccccc21 | inactive
O=C(c1ccc(-n2c(=S)[nH]c3ccccc3c2=O)cc1)N1CCN(c2ccc(F)cc2)CC1 | > 55.7 µM (inactive)
CCOc1ccc(-c2csc(Cn3c(CN4CCN(C)CC4)nc4ccccc4c3=O)n2)cc1 | > 55.7 µM (inactive)
CNC(=O)c1nn(-c2ccc(F)cc2)c(=O)c2ccccc12 | > 55.7 µM (inactive)
O=C(c1ccc(-n2c(=S)[nH]c3ccccc3c2=O)cc1)N1CCN(C(=O)c2ccco2)CC1 | > 55.7 µM (inactive)
O=C(Nc1ccc(F)cc1)C(c1ccccc1)N1CCN(S(=O)(=O)c2ccc3c(c2)OCCO3)CC1 (centres undefined) | > 55.7 µM (inactive)
CC(=O)c1ccc(S(=O)(=O)N2CCN(C(C(=O)Nc3ccc(C)cc3)c3ccccc3)CC2)cc1 (centres undefined) | > 55.7 µM (inactive)
N#Cc1ccc(S(=O)(=O)N2CCN(C(C(=O)Nc3ccc(F)cc3)c3ccccc3)CC2)cc1 (centres undefined) | > 55.7 µM (inactive)
Cc1ccc(NC(=O)C(c2ccccc2)N2CCN(S(=O)(=O)c3ccccc3)CC2)cc1 (centres undefined) | > 55.7 µM (inactive)
NC(=O)c1ccc(S(=O)(=O)N2CCN(C(C(=O)Nc3ccc(F)cc3)c3ccccc3)CC2)cc1 (centres undefined) | > 55.7 µM (inactive)
Cc1ccc(C)c(NC(=O)C(c2ccccc2)N2CCN(S(=O)(=O)c3ccccc3C#N)CC2)c1 (centres undefined) | > 55.7 µM (inactive)
Cc1cc2oc(=O)cc(CSc3nc4ccccc4c(=O)[nH]3)c2cc1Cl | > 55.7 µM (inactive)
O=c1cc(CSc2nc3ccccc3c(=O)[nH]2)c2ccc(O)cc2o1 | > 55.7 µM (inactive)
CN1CCN(Cc2nc3ccccc3c(=O)n2Cc2nc(-c3ccccc3F)cs2)CC1 | > 55.7 µM (inactive)
